Reference: US10301272B2, “Carboxamide or sulfonamide substituted thiazoles and related derivatives as modulators for the orphan nuclear receptor ROR[γ]” (Phenex Pharmaceuticals AG, priority 2012, dated 2019)
Like-named read-outs stand apart in the source and are kept apart here. Each block holds one molecule with its values, some of them ahead of it.

Molecular target: RORγ (Homo sapiens, UniProt P51449)
Test: RORγ Gal4 Reporter Gene Assay
Assay type: cell-based
Protocol: Determination of a ligand mediated Gal4 promoter driven transactivation to quantify ligand binding to RORγ was performed as follows: DNA encoding three different RORγ protein fragments was cloned into vector pCMV-BD (Stratagene). Expression was under control of a CMV promoter and as fusion to the DNA-binding domain of the yeast protein GAL4. Other vectors used were pFR-Luc (Stratagene) as regulated reporter plasmid. pFR-Luc contains a synthetic promoter with five tandem repeats of the yeast GAL4 binding sites that control expression of the Photinus pyralis (American firefly) luciferase gene. In order to improve experimental accuracy the plasmid pRL-CMV was cotransfected. pRL-CMV contains the constitutive CMV promoter, controlling the expression of the Renilla reniformis luciferase.
The medium is supplemented with 10% fetal bovine serum, 0.1 mM nonessential amino acids, 1 mM sodium pyruvate, 1% Glutamax and 100 units Penicilin/[…] per mL at 37° C. in 5% CO2.
For the assay, […] were plated per well in 96 well plates in 100 μL per well, incubated over night at 37° C. in 5% CO2. […] About 4 h after addition of the transfection solution, fresh Minimal Essential Medium (MEM, same composition as used for plating cells, but without serum) was added. Then compound stocks, prediluted in MEM (same composition as used for plating cells) were added (final vehicle concentration not exceeding 0.1%).
All experiments were done at least in triplicates.

[1] = firefly (FF) luciferase, 293T cells, read-out: pIC50 (FF) (converted)
[2] = renilla normalised (RENnorm) luciferase, 293T cells, read-out: pIC50 (REN) (converted)

Chain of RORγ (P51449 whole entry, looked up, the tested form may be a part): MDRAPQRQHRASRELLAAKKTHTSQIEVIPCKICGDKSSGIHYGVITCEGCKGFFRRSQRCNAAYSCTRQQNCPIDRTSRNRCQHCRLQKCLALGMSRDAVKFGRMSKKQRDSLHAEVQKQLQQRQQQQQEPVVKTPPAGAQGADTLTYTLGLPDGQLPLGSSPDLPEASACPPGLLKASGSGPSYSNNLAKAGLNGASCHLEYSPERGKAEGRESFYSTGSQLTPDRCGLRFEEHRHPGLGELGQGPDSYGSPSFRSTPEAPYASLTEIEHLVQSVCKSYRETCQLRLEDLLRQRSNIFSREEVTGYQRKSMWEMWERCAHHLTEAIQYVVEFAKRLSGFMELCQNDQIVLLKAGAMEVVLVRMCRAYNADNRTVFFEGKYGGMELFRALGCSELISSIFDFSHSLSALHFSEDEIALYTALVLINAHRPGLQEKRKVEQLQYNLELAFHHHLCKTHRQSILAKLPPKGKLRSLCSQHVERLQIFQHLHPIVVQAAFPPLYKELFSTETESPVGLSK

Compound: CC(C)(C)NS(=O)(=O)c1ccc(-c2sc(C(=O)N3CCC(C(C)(C)C(=O)O)C3)nc2CC2CCCCC2)c2ccccc12 (stereo not shown) [6/50]
- pIC50 (FF): nt/7.6/7.7
- pIC50 (REN): nt/7.6/7.7

Compound: CN(C(=O)c1nc(CC2CCCCC2)c(-c2cc(C(C)(C)C)cc(C3(C)CC3)c2)s1)C1CCOCC1 [6/52]
- pIC50 (FF): nt/6.9/6.9
- pIC50 (REN): nt/6.9/6.9

Compound: CC(C)(C)NS(=O)(=O)c1ccc(-c2sc(C(=O)N3CCS(=O)(=O)CC3)nc2CC2CCCCC2)c2ccccc12 [6/55]
- pIC50 (FF): nt/8.0/8.2
- pIC50 (REN): nt/8.0/8.2

Compound: CC(C)(C)NS(=O)(=O)c1ccc(-c2sc(C(=O)N3CCC(S(C)(=O)=O)CC3)nc2CC2CCCCC2)c2ccccc12 [6/56]
- pIC50 (FF): nt/8.1/8.2
- pIC50 (REN): nt/8.1/8.2

Compound: CC(C)(C)NS(=O)(=O)c1ccc(-c2sc(C(=O)N3CC(S(C)(=O)=O)C3)nc2CC2CCCCC2)c2ccccc12 [6/57]
- pIC50 (FF): nt/7.9/8.2
- pIC50 (REN): nt/7.9/8.2

Compound: CC(C)(C#N)CNC(=O)c1nc(CC2CCCCC2)c(-c2ccc(S(=O)(=O)NC(C)(C)C)c3ccccc23)s1 [6/58]
- pIC50 (FF): nt/8.7/8.7
- pIC50 (REN): nt/8.7/8.7

Compound: CC(C)(C)NS(=O)(=O)c1ccc(-c2sc(C(=O)NCC(C)(C)c3nn[nH]n3)nc2CC2CCCCC2)c2ccccc12 [6/59]
- pIC50 (FF): nt/7.6/7.8
- pIC50 (REN): nt/7.6/7.8

Compound: CC(C)(C)NS(=O)(=O)c1ccc(-c2sc(C(=O)NCC(C)(C)c3noc(=O)[nH]3)nc2CC2CCCCC2)c2ccccc12 [6/60]
- pIC50 (FF): nt/8.5/8.7
- pIC50 (REN): nt/8.5/8.7

Compound: C[C@H](NC(=O)c1cc(-c2sc(C(=O)NCC(C)(C)c3nnn[nH]3)nc2CC2CCCCC2)cc(C2(C)CC2)c1)C(F)(F)F [6/62]
- pIC50 (FF): nt/7.5/7.5
- pIC50 (REN): nt/7.5/7.5

Compound: Cc1c(-c2sc(C(=O)NC3CCS(=O)(=O)CC3)nc2CC2CCCCC2)cc(Cl)c(S(=O)(=O)NC(C)(C)C)c1Cl [6/63]
- pIC50 (FF): nt/9.2/8.9
- pIC50 (REN): nt/9.2/8.9

Compound: CC(C)(C)NS(=O)(=O)c1ccc(-c2sc(C(=O)N[C@H]3C[C@H](C(=O)O)C3)nc2CC2CCCCC2)c2ccccc12 [7/9]
- pIC50 (FF) (firefly (FF) luciferase, 293T cells): 8.7
- pIC50 (REN) (renilla normalised (RENnorm) luciferase, 293T cells): 9.0

- IC50 [1]: 1 nM
- IC50 [2]: 1 nM
Compound: C[C@H](NS(=O)(=O)c1ccc(-c2sc(C(=O)NC3CCS(=O)(=O)CC3)nc2CC2CCCC2)c2ccccc12)C(F)(F)F [8/11]

- IC50 [1]: 1.26 nM
- IC50 [2]: 1.26 nM
Compound: C[C@H](NS(=O)(=O)c1ccc(-c2sc(C(=O)NC3CCS(=O)(=O)CC3)nc2CC2CCCC2)c(Cl)c1Cl)C(F)(F)F [8/12]

Compound: CC(C)(CCO)NC(=O)c1cc(-c2sc(C(=O)NC3CCS(=O)(=O)CC3)nc2CC2CCCCC2)cc(C2(C)CC2)c1 [10/3]
- pIC50 (FF): nt/7.9/8.0
- pIC50 (REN): nt/7.9/8.0

Compound: CC1(NC(=O)c2cc(-c3sc(C(=O)NC4CCS(=O)(=O)CC4)nc3CC3CCCCC3)cc(C3(C)CC3)c2)COC1 [10/4]
- pIC50 (FF): nt/7.9/7.9
- pIC50 (REN): nt/7.9/7.9

Compound: Cc1c(-c2sc(C(=O)NC3CCS(=O)(=O)CC3)nc2CC2CCCCC2)cc(Cl)c(S(N)(=O)=O)c1Cl [17/2]
- pIC50 (FF): nt/5.7/5.9
- pIC50 (REN): nt/5.7/5.9

Compound: CC(C)(C)NS(=O)(=O)c1cc(Cl)c(-c2sc(C(=O)N[C@H]3C[C@H](C(=O)O)C3)nc2CC2CCCCC2)cc1Cl [19/11]
- pIC50 (FF): nt/7.6/7.7
- pIC50 (REN): nt/7.6/7.7

- IC50 [1]: 10 nM
- IC50 [2]: 6.31 nM
Compound: CC(C)(C)NS(=O)(=O)c1ccc(-c2sc(C(=O)N[C@H]3C[C@H](C(=O)O)C3)nc2CC2CCCCC2)c(OC(F)(F)F)c1 [21/7]

Compound: CC(C)(O)CNC(=O)c1nc(CC2CCCCC2)c(-c2ccc(S(=O)(=O)NC(C)(C)C)cc2OC(F)(F)F)s1 [21/8]
- pIC50 (FF): nt/7.7/7.8
- pIC50 (REN): nt/7.7/7.8

Compound: CC(C)(O)CNC(=O)c1nc(CC2CCC(F)(F)CC2)c(-c2ccc(S(=O)(=O)NC(C)(C)C)c3ccccc23)s1 [21/11]
- pIC50 (FF): nt/8.0/8.2
- pIC50 (REN): nt/8.0/8.2

Compound: CC(C)(C)NS(=O)(=O)c1ccc(-c2sc(C(=O)NC3CCS(=O)(=O)CC3)nc2CC2CCC(F)(F)CC2)c2ccccc12 [21/12]
- pIC50 (FF): nt/8.0/8.2
- pIC50 (REN): nt/8.0/8.2

Compound: CC(C)(C)NS(=O)(=O)c1ccc(-c2sc(C(=O)NC3CCS(=O)(=O)CC3)nc2CC2CCC2)c(Cl)c1Cl [21/14]
- pIC50 (FF): nt/8.3/8.4
- pIC50 (REN): nt/8.3/8.4

- IC50 [1]: 20 nM
- IC50 [2]: 20 nM
Compound: CC(C)(C)NS(=O)(=O)c1ccc(-c2sc(C(=O)N[C@H]3C[C@H](C(=O)O)C3)nc2CC2CCC2)c(Cl)c1Cl [21/15]

Compound: CC(C)(C)NS(=O)(=O)c1ccc(-c2sc(C(=O)NC3CCS(=O)(=O)CC3)nc2CC2CCC2)c2ccccc12 [21/16]
- pIC50 (FF): nt/8.4/8.4
- pIC50 (REN): nt/8.4/8.4

- IC50 [1]: 7.94 nM
- IC50 [2]: 6.31 nM
Compound: CC(C)(C)NS(=O)(=O)c1ccc(-c2sc(C(=O)N[C@H]3C[C@H](C(=O)O)C3)nc2CC2CCC2)c2ccccc12 [21/17]

Compound: C[C@H](NS(=O)(=O)c1ccc(-c2sc(C(=O)NCC(C)(C)O)nc2CC2CCC2)c(OC(F)(F)F)c1)C(F)(F)F [21/18]
- pIC50 (FF): nt/8.0/8.1
- pIC50 (REN): nt/8.0/8.1

Compound: C[C@H](NS(=O)(=O)c1ccc(-c2sc(C(=O)NCC(C)(C)O)nc2CC2CCC2)c(Cl)c1)C(F)(F)F [21/19]
- pIC50 (FF): nt/7.9/7.9
- pIC50 (REN): nt/7.9/7.9

Compound: C[C@H](NS(=O)(=O)c1ccc(-c2sc(C(=O)NCC(C)(C)O)nc2CC2CCC2)c(C(F)(F)F)c1)C(F)(F)F [21/20]
- pIC50 (FF): nt/7.7/7.7
- pIC50 (REN): nt/7.7/7.7

Compound: C[C@H](NS(=O)(=O)c1ccc(-c2sc(C(=O)NCC(C)(C)O)nc2CC2CCC2)c(OC(F)F)c1)C(F)(F)F [21/21]
- pIC50 (FF): nt/7.7/7.8
- pIC50 (REN): nt/7.7/7.8

Compound: C[C@H](NS(=O)(=O)c1ccc(-c2sc(C(=O)NCC(C)(C)O)nc2CC2CCC(F)(F)CC2)c2ccccc12)C(F)(F)F [21/23]
- pIC50 (FF): nt/8.7/8.6
- pIC50 (REN): nt/8.7/8.6

Compound: CC(C)(O)CNC(=O)c1nc(CC2CCC2)c(-c2ccc(S(=O)(=O)NC(C)(C)C)cc2OC(F)(F)F)s1 [21/24]
- pIC50 (FF): nt/7.5/7.6
- pIC50 (REN): nt/7.5/7.6

Compound: CCC(C)(C)NS(=O)(=O)c1ccc(-c2sc(C(=O)NCC(C)(C)O)nc2CC2CCC2)c(OC(F)(F)F)c1 [21/25]
- pIC50 (FF): nt/7.7/7.8
- pIC50 (REN): nt/7.7/7.8

Compound: CC(C)(C)NS(=O)(=O)c1ccc(-c2nc(C(=O)NC3CCS(=O)(=O)CC3)sc2CC2CCCCC2)c2ccccc12 [25/2]
- pIC50 (FF): nt/9.0/9.0
- pIC50 (REN): nt/9.0/9.0

Compound: CC(C)(C)NS(=O)(=O)c1ccc(-c2oc(C(=O)NCCC(C)(C)C(=O)O)nc2CC2CCCCC2)c2ccccc12 [100/21]
- pIC50 (FF): nt/7.2/7.1
- pIC50 (REN): nt/7.2/7.1

Compound: CC(C)(C)NS(=O)(=O)c1ccc(-c2oc(C(=O)N3CC4(C3)CS(=O)(=O)C4)nc2CC2CCCCC2)c2ccccc12 [100/24]
- pIC50 (FF): nt/7.5/7.7
- pIC50 (REN): nt/7.5/7.7

Compound: CC(C)(C)NS(=O)(=O)c1ccc(-c2oc(C(=O)NC3CCS(=O)(=O)CC3)nc2CC2CCCCC2)c2ccncc12 [100/28]
- pIC50 (FF): nt/7.1/7.2
- pIC50 (REN): nt/7.1/7.2

- IC50 [1]: 398 nM
- IC50 [2]: 251 nM
Compound: CC(C)(C)c1cc(-c2nc(C(=O)N[C@H]3C[C@H](C(=O)O)C3)oc2CC2CCCCC2)cc(C2(C)CC2)c1 [103/2]

Compound: CC(C)(C)c1cc(-c2nc(C(=O)NC3CCS(=O)(=O)CC3)oc2CC2CCCCC2)cc(C2(C)CC2)c1 [103/3]
- pIC50 (FF): nt/6.6/6.6
- pIC50 (REN): nt/6.6/6.6

Compound: CCCc1nc(C(=O)NC2CCS(=O)(=O)CC2)sc1-c1ccc(S(=O)(=O)NC(C)(C)C)c2ccccc12 [300/7]
- pIC50 (FF): nt/7.7/7.9
- pIC50 (REN): nt/7.7/7.9

- IC50 [1]: 79.4 nM
- IC50 [2]: 63.1 nM
Compound: CCCc1nc(C(=O)N[C@H]2C[C@H](C(=O)O)C2)sc1-c1ccc(S(=O)(=O)NC(C)(C)C)c2ccccc12 [300/8]

Compound: CCCc1nc(C(=O)NCC(C)(C)O)sc1-c1ccc(S(=O)(=O)N[C@@H](C)C(F)(F)F)c2ccccc12 [300/9]
- pIC50 (FF): nt/7.9/7.9
- pIC50 (REN): nt/7.9/7.9

Compound: CC(C)(C)NS(=O)(=O)c1ccc(-c2sc(C(=O)NC3CCS(=O)(=O)CC3)nc2C2CCC2)c2ccccc12 [300/10]
- pIC50 (FF): nt/7.2/7.3
- pIC50 (REN): nt/7.2/7.3

Compound: CC(C)(C)NS(=O)(=O)c1ccc(-c2sc(C(=O)NC3CCS(=O)(=O)CC3)nc2-c2cccnc2)c2ccccc12 [300/12]
- pIC50 (FF): nt/6.1/6.2
- pIC50 (REN): nt/6.1/6.2

Compound: CC(C)(C)NS(=O)(=O)c1ccc(-c2sc(C(=O)NC3CCS(=O)(=O)CC3)nc2Cc2cccnc2)c2ccccc12 [300/13]
- pIC50 (FF): nt/6.4/6.6
- pIC50 (REN): nt/6.4/6.6

Compound: CC(C)(C)NS(=O)(=O)c1ccc(-c2sc(C(=O)NC3CCS(=O)(=O)CC3)nc2-c2cccc(Cl)c2)c2ccccc12 [300/14]
- pIC50 (FF): nt/8.2/8.2
- pIC50 (REN): nt/8.2/8.2

Compound: CC(C)(C)NS(=O)(=O)c1ccc(-c2sc(C(=O)NC3CCS(=O)(=O)CC3)nc2-c2cccc(C#N)c2)c2ccccc12 [300/15]
- pIC50 (FF): nt/7.3/7.4
- pIC50 (REN): nt/7.3/7.4

Compound: CC(C)(C)NS(=O)(=O)c1ccc(-c2sc(C(=O)NC3CCS(=O)(=O)CC3)nc2-c2cccc(C(N)=O)c2)c2ccccc12 [300/16]
- pIC50 (FF): nt/6.0/6.1
- pIC50 (REN): nt/6.0/6.1
